Source: paper PMC3076582 (European Journal of Clinical Pharmacology, 2010)
Where two headings read alike, the source gives them in different places.

Columns and labels:
[1] = type: in vivo, human; details: for Dose-corrected serum concentration, 25th percentile / Dose-corrected serum concentration, 75th percentile / Dose-corrected serum concentration, mean / Dose-corrected serum concentration, median / Dose-corrected serum concentration, minimum to maximum / Uncorrected serum concentration, 25th percentile / Uncorrected serum concentration, 75th percentile / Uncorrected serum concentration, mean / Uncorrected serum concentration, minimum to maximum / Uncorrected serum concentration, median / Ratio metabolite/oxycodone serum concentration, 25th percentile / Ratio metabolite/oxycodone serum concentration, 75th percentile / Ratio metabolite/oxycodone serum concentration, mean / Ratio metabolite/oxycodone serum concentration, median / Ratio metabolite/oxycodone serum concentration, minimum to maximum: hospitalised patients; for Uncorrected serum concentration, median: oral oxycodone, trough sample; for Serum concentration, range / Serum concentration, median: partly different from Table 3; for Ratio metabolite/oxycodone serum concentration, 25th percentile / Ratio metabolite/oxycodone serum concentration, 75th percentile / Ratio metabolite/oxycodone serum concentration, mean / Ratio metabolite/oxycodone serum concentration, median / Ratio metabolite/oxycodone serum concentration, minimum to maximum: uncorrected serum concentrations
[2] = for Unstandardised coefficient B, ratio noroxycodone/oxycodone / Unstandardised coefficient B, oxycodone serum concentration / Unstandardised coefficient B, ratio oxymorphone/oxycodone: log 10 form
[3] = system: CYP2D6; details: healthy volunteers; cited from earlier work
[4] = system: CYP3A4; details: cited from earlier work
[5] = Mann-Whitney U test; 35 users
[6] = cited from earlier work
[7] = cited from earlier work; remark: listed apart in the source
[8] = cited from earlier work; remark: listed apart in the source
[9] = factor: CYP3A4 inducer (yes = 1)
[10] = factor: CYP3A4 inhibitor (yes = 1)
[11] = factor: sex (men = 1, women = 0)
[12] = factor: time from last oxycodone dose to blood sample

| Compound | 95% CI for the mean ratio metabolite/oxycodone [1] [nM] | 95% CI for the uncorrected mean serum concentration [1] [nM] | Dose-corrected serum concentration, 25th percentile [1] | Dose-corrected serum concentration, 75th percentile [1] | Dose-corrected serum concentration, mean [1] | Dose-corrected serum concentration, median [1] | Dose-corrected serum concentration, minimum to maximum [1] | Uncorrected serum concentration, 25th percentile [1] [nM] | Uncorrected serum concentration, 75th percentile [1] [nM] | Uncorrected serum concentration, mean [1] [nM] | Uncorrected serum concentration, minimum to maximum [1] | Uncorrected serum concentration, median [1] [nM] | Serum concentration, range [1] | Ratio metabolite/oxycodone serum concentration, 25th percentile [1] | Ratio metabolite/oxycodone serum concentration, 75th percentile [1] | Ratio metabolite/oxycodone serum concentration, mean [1] | Ratio metabolite/oxycodone serum concentration, median [1] | Ratio metabolite/oxycodone serum concentration, minimum to maximum [1] | AUC after blocking the CYP2D6 metabolic pathways of oxycodone with quinidine [3] | Serum concentration, median [1] [nM] | other results |
| --- | --- | --- | --- | --- | --- | --- | --- | --- | --- | --- | --- | --- | --- | --- | --- | --- | --- | --- | --- | --- | --- |
| COc1ccc2c3c1O[C@H]1C(=O)CC[C@@]4(O)[C@@H](C2)NCC[C@]314 [Noroxycodone, noroxycodone] | 1.4 to 1.8 | 174 to 245 | 103 nM × 100 mg 24 h^−1/dose 24 h^−1 | 261 nM × 100 mg 24 h^−1/dose 24 h^−1 | 212 nM × 100 mg 24 h^−1/dose 24 h^−1 | 161 nM × 100 mg 24 h^−1/dose 24 h^−1 | 0–3,032 nM × 100 mg 24 h^−1/dose 24 h^−1 | 44 | 211 | 209 | 0–3,571 nM | 101 | 0 to 4,858 nM | 0.7 | 1.9 | 1.6 | 1.1 | 0.1–24.4 | increased |  | Unstandardised coefficient B, ratio noroxycodone/oxycodone ([2]; factor: BMI): −0.009; Unstandardised coefficient B, ratio noroxycodone/oxycodone [2, 9]: 0.602; Unstandardised coefficient B, ratio noroxycodone/oxycodone [2, 10]: −0.294; Unstandardised coefficient B, ratio noroxycodone/oxycodone ([2]; factor: albumin): 0.006; Unstandardised coefficient B, ratio noroxycodone/oxycodone ([2]; factor: glomerular filtration rate): −0.001; Unstandardised coefficient B, ratio noroxycodone/oxycodone ([2]; factor: oxycodone total daily dose, n = 396, R^2 = 0.19): 0.001; Unstandardised coefficient B, ratio noroxycodone/oxycodone [2, 11]: −0.110; Unstandardised coefficient B, ratio noroxycodone/oxycodone ([2]; factor: systemic steroids (yes = 1)): −0.070; Unstandardised coefficient B, ratio noroxycodone/oxycodone [2, 12]: 0.012; Predicted higher noroxycodone/oxycodone ratio in users of CYP3A4 inducers ([2]; human, in vivo): about 4 times; Predicted lower noroxycodone/oxycodone ratio in users of systemic steroids ([2]; human, in vivo): 15%; Cmax after blocking the CYP3A4 metabolic pathway with ketoconazole [4]: decreased |
| O=C1CC[C@@]2(O)[C@H]3Cc4ccc(O)c5c4[C@@]2(CCN3)[C@H]1O5 [Noroxymorphone, noroxymorphone] |  |  | 18 nM × 100 mg 24 h^−1/dose 24 h^−1 | 44 nM × 100 mg 24 h^−1/dose 24 h^−1 | 34 nM × 100 mg 24 h^−1/dose 24 h^−1 | 29 nM × 100 mg 24 h^−1/dose 24 h^−1 | 0–360 nM × 100 mg 24 h^−1/dose 24 h^−1 | 8 | 39 | 30 | 0 to 509 nM | 17 | 0 to 509 nM |  |  |  |  |  |  | 17 |  |
| COc1ccc2c3c1O[C@H]1C(=O)CC[C@@]4(O)[C@@H](C2)N(C)CC[C@]314 [Oxycodone, oxycodone, reference compound] |  | 139 to 183 | 90 nM × 100 mg 24 h^−1/dose 24 h^−1 | 225 nM × 100 mg 24 h^−1/dose 24 h^−1 | 186 nM × 100 mg 24 h^−1/dose 24 h^−1 | 144 nM × 100 mg 24 h^−1/dose 24 h^−1 | 0–1,294 nM × 100 mg 24 h^−1/dose 24 h^−1 | 43 | 201 | 161 | 0–1,890 nM | 97 | 0 to 1,890 nM |  |  |  |  |  | increased |  | Predicted higher oxycodone serum concentration in men than in women ([2]; calculated from the regression analysis): about 30%; Unstandardised coefficient B, oxycodone serum concentration [2, 9]: −0.786; Unstandardised coefficient B, oxycodone serum concentration [2, 10]: 0.204; Unstandardised coefficient B, oxycodone serum concentration ([2]; factor: oxycodone total daily dose, n = 433, R^2 = 0.35): 0.002; Unstandardised coefficient B, oxycodone serum concentration [2, 11]: 0.113; Unstandardised coefficient B, oxycodone serum concentration [2, 12]: −0.027; Predicted higher oxycodone serum concentration in users of CYP3A4 inhibitors ([2]; versus non-users): 60%; Predicted lower oxycodone serum concentration in users of CYP3A4 inducer drugs ([2]; versus those without CYP3A4 inducer drug): 84%; Serum concentration, users versus non-users of CYP2D6 inhibitors [5]: did not differ; Oral bioavailability [6]: 60–87%; Plasma concentrations in elderly versus younger patients [7]: may have higher |
| CN1CC[C@]23c4c5ccc(O)c4O[C@H]2C(=O)CC[C@@]3(O)[C@H]1C5 [Oxymorphone, oxymorphone] | 0.020 to 0.025 | 2.3 to 3.0 | 1.2 nM × 100 mg 24 h^−1/dose 24 h^−1 | 4.2 nM × 100 mg 24 h^−1/dose 24 h^−1 | 3.4 nM × 100 mg 24 h^−1/dose 24 h^−1 | 2.2 nM × 100 mg 24 h^−1/dose 24 h^−1 | 0–34 nM × 100 mg 24 h^−1/dose 24 h^−1 | 0.7 | 3.2 | 2.6 | 0 to 25 nM | 1.5 | 0 to 27 nM | 0.01 | 0.03 | 0.02 | 0.02 | 0.00032–0.21 | decreased | 1.5 | Unstandardised coefficient B, ratio oxymorphone/oxycodone [2, 9]: 0.607; Unstandardised coefficient B, ratio oxymorphone/oxycodone ([2]; factor: number of medications (excluding opioids) taken in the last 24 h): −0.024; Unstandardised coefficient B, ratio oxymorphone/oxycodone ([2]; factor: oxycodone total daily dose, n = 438, R^2 = 0.05): −0.0004; Serum concentration, users versus non-users of CYP2D6 inhibitors [5]: did not differ; AUC after blocking the CYP3A4 metabolic pathway with ketoconazole [4]: increased; Concentrations in patients with impaired hepatic function [7]: lower |
| CN1CC[C@]23c4c5ccc(O)c4O[C@H]2[C@@H](O)C=C[C@H]3[C@H]1C5 [morphine] |  |  |  |  |  |  |  |  |  |  |  |  |  |  |  |  |  |  |  |  | Additional morphine needed by men compared with women for pain relief [8]: 30–40% |
